Reference: US20190100549A1, “FLAVONOIDE-TYPE COMPOUNDS BEARING AN O-RHAMNOSYL RESIDUE” (Universitaet Hamburg, priority 2016, published 2019)
“And” between values parts separate entries of the source, which are not always exact repeats. Equal values may be shown once.

Columns and labels:
NF-κB = NF-κB activity in NIH3T3-KBF-Luc cells stimulated with TNFα (luciferase); format: cell-based; details: for % Activation: TNFα alone = 100
Description: NIH3T3-KBF-Luc cells were stably transfected with the KBF-Luc plasmid (Sancho (2003) Mol Pharmacol 63:429-438), which contains three copies of NF-κB binding site (from major histocompatibility complex promoter), fused to a minimal simian virus 40 promoter driving the luciferase gene. Cells (1×10^4 for NIH3T3-KBF-Luc) were seeded the day before the assay on 96-well plate. Then the cells were treated with the test substances for 15 min and then stimulated with 30 ng/ml of TNFα. After 6 h, the cells were washed twice with PBS and lysed in 50 μl lysis buffer containing 25 mM Tris-phosphate (pH 7.8), 8 mM MgCl2, 1 mM DTT, 1% Triton X-100, and 7% glycerol during 15 min at RT in a horizontal shaker. Luciferase activity was measured using a GloMax 96 microplate luminometer (Promega) following the instructions of the luciferase assay kit (Promega, Madison, Wis., USA). […] The experiments for each concentration of the test items were done in triplicate wells.

fibronectin = assay: Fibronectin synthesis in NHDF (ELISA); format: cell-based, human; details: 100 μM, 72 hours
Description: Tests were performed with normal human dermal fibroblast cultures at the 8th passage. Cells were grown in DMEM supplemented with glutamine at 2 mM, penicillin at 50 U/mL and streptomycin (50 μg/mL) and 10% of fetal calf serum (FCS) at 37° C. in a 5% CO2 atmosphere.
Fibroblasts were cultured for 24 hours before the cells were incubated with the test compounds for further 72 hours. After the incubation the culture supernatants were collected in order to measure the released quantities of procollagen I, VEGF, and fibronectin by means of ELISA. Reference test compounds were vitamin C (procollagen I), PMA (VEGF), and TGF-β (fibronectin).

HaCaT cells = assay: Glucose uptake (2-NBDG) in HaCaT keratinocytes; format: cell-based; design: key to Measure 1 / Measure 2 / Measure 3 / Mean: total green object integrated intensity, GCU×μm2×Well; details: +2NBDG 50 μM, 24 h; for Measure 1 / Measure 2 / Measure 3: HaCaT cells, fluorescence; for RFU specific: mean minus control; for Mean: mean of triplicate measurements; for % Glucose uptake: Rosiglitazone 80 μM = 100%
Description: HaCaT cells (5×10^4) were seeded in 96-well black plates and incubated for 24 h. Then, medium was removed and the cells cultivated in OptiMEM, labeled with 50 μM 2-NBDG (2-[N-(7-nitrobenz-2-oxa-1,3-diazol-4-yl) amino]-2-deoxy-D-glucose and treated with the test substances or the positive control, Rosiglitazone, for 24 h. Medium was removed and the wells were carefully washed with PBS and incubated in PBS (100l/well). Finally the fluorescence was measured using the Incucyte FLR software, the data were analyzed by the total green object integrated intensity (GCU×μm2×Well) of the imaging system IncuCyte HD (Essen BioScience). The fluorescence of Rosiglitazone is taken as 100% of glucose uptake, and the glucose uptake was calculated as (% Glucose uptake)=100(T−B)/(R−B), where T (treated) is the fluorescence of test substance-treated cells, B (Basal) is the fluorescence of 2-NBDG cells and […] is the fluorescence of cells treated with Rosiglitazone.

[1] = tested on: lipid peroxides (C11-fluor) in NHEK cells; assay: Protection against UV-induced lipid peroxide in NHEK (C11-fluor probe, flow cytometry); format: cell-based, human; details: 100 μM, 240 mJ/cm^2 UVB (3538 mJ/cm^2 UVA)
Description: Pre-incubated NHEK were incubated with the test compound for 24 h. Then the specific fluorescence probe for the measurement of hydrogen peroxide (DHR) or lipid peroxides (C11-fluor) was added and incubated for 45 min. Irradiation occurred with in H2O2 determination UVB at 180 mJ/cm^2 (+UVA at 2839 mJ/cm^2) or UVB at 240 mJ/cm^2 (+UVA at 3538 mJ/cm^2) in lipid peroxide, respectively, using a SOL500 Sun Simulator lamp. After irradiation the cells were post-incubated for 30 min before flow-cytometry analysis.

COc1ccc(C2CC(=O)c3c(cc(O)cc3O[C@@H]3O[C@@H](C)[C@H](O)[C@@H](O)[C@H]3O)O2)cc1O (stereo partly drawn) [HESR1, Hesperetin-5-O-α-L-rhamnoside]
RLU 1 (NF-κB; 10 μM + 30 ng/ml TNFα): 186120 RLU | RLU 2 (NF-κB; 10 μM + 30 ng/ml TNFα): 181040 RLU | RLU 3 (NF-κB; 10 μM + 30 ng/ml TNFα): 182280 RLU | RLU MEAN (NF-κB; 10 μM + 30 ng/ml TNFα): 183147 RLU | RLU specific (NF-κB; 10 μM + 30 ng/ml TNFα): 145883 RLU | % Activation (NF-κB; 10 μM + 30 ng/ml TNFα): 178.4% | RLU 1 (NF-κB; 25 μM + 30 ng/ml TNFα): 218940 RLU | RLU 2 (NF-κB; 25 μM + 30 ng/ml TNFα): 216580 RLU | RLU 3 (NF-κB; 25 μM + 30 ng/ml TNFα): 213320 RLU | RLU MEAN (NF-κB; 25 μM + 30 ng/ml TNFα): 216280 RLU | RLU specific (NF-κB; 25 μM + 30 ng/ml TNFα): 179017 RLU | % Activation (NF-κB; 25 μM + 30 ng/ml TNFα): 218.9% | Fibronectin % Control (fibronectin): 96% | Fibronectin % Stimulation (fibronectin): −4% | Fibronectin Mean (fibronectin): 5853 ng/mL | Fibronectin (fibronectin; single values): 5843 ng/mL and 5864 ng/mL | Measure 1 (HaCaT cells; 25 μM test substance): 756943 | Measure 2 (HaCaT cells; 25 μM test substance): 549324 | Measure 3 (HaCaT cells; 25 μM test substance): 384251 | RFU specific (HaCaT cells; 25 μM test substance): 557192 RFU | Mean (HaCaT cells; 25 μM test substance): 563506 | % Glucose uptake (HaCaT cells; 25 μM test substance): 64.1% | Measure 1 (HaCaT cells; 50 μM test substance): 501977 | Measure 2 (HaCaT cells; 50 μM test substance): 642949 | Measure 3 (HaCaT cells; 50 μM test substance): 529620 | RFU specific (HaCaT cells; 50 μM test substance): 551868 RFU | Mean (HaCaT cells; 50 μM test substance): 558182 | % Glucose uptake (HaCaT cells; 50 μM test substance): 63.5% | C11-fluor(AU) Mean (1/GMFI) [1]: 6.4E−04 AU | lipid peroxide % Irradiated control [1]: 99% | lipid peroxide Protection % [1]: 1% | C11-fluor(AU) 1/GMFI ([1]; single values): 6.0E−04 AU and 6.9E−04 AU | C11-fluor(AU) GMFI ([1]; single values): 1671 AU and 1455 AU
